The text below walks through data of patent publication US7393818B2 (priority 2003, dated 2008).

The target of assay [1] is Scrapie (sheep) prion protein (Ovis aries, UniProt P23907).
For another assay, the system named is prions. The conditions noted are these: reported in literature; cited from earlier work.

Scrapie (sheep) prion protein, sequence (P23907 25-233 limits assumed): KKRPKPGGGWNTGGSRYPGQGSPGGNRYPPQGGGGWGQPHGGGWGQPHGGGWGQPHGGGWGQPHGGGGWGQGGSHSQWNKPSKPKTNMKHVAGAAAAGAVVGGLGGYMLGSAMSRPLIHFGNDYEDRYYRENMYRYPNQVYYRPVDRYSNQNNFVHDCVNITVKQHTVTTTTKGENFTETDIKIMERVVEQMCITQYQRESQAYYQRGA

Consider `OO` [7% Hydrogen Peroxide, hydrogen peroxide], for which, in assay [1] (in the period of the test (one hour soak)), the “effect on the percentage of samples showing presence of prion” value was “no effect”. The “Percentage of Samples Tested where Prion (Scrapie) is Detected” value in assay [1] (wires soaked for one hour) is reported as 100%. Take `O=CCCCC=O` [Glutaraldehyde]: the effectiveness against prions entry in the assay on prions is “ineffective”. For the molecule `C1CO1` [ethylene oxide], the effectiveness against prions entry in the assay on prions is recorded as “ineffective”.

For the molecule `OO` [hydrogen peroxide], the effectiveness against prions result in the assay with prions is recorded as “ineffective”.
